Measurements as given in US20050049299A1, “Selective inhibitors of stat-3 activation and uses thereof” (priority 2003, published 2005).

Key:
STAT3 phosphorylation [1] = assay: STAT3 phosphorylation in MM.1S and MM.1R cells after TNF, LT or IL-6 (Western blot); assay type: cell-based, human
Protocol: (§1) The cell proliferation assay was performed as described below. Results are shown as mean (±s.d. indicated by error bar) of percent [^3H] thymidine incorporation of triplicate cultures compared to the untreated control. […] Cells were treated with IL-6 for 10 minutes as a positive control for STAT3 phosphorylation. Thirty micrograms of whole cell extract was were resolved on 7.5% SDS-PAGE, electrotransferred to a nitrocellulose membrane, and probed for phosphorylated-STAT3 (upper panel), stripped, and reprobed for STAT3 (lower panel).
(§2) For detection of STAT proteins, whole-cell extracts were prepared by lysing the curcumin-treated cells in lysis buffer (20 mM Tris, pH 7.4, 250 mM NaCl, 2 mM EDTA, pH 8.0, 0.1% Triton-X100, 0.01 mg/ml aprotinin, 0.005 mg/ml leupeptin, 0.4 mM PMSF, and 4 mM NaVO4). Lysates were then spun at 14000 rpm for 10 min to remove insoluble material, and resolved on a 7.5% gel. After electrophoresis, the proteins were electrotransferred to a nitrocellulose membrane, blocked with 5% nonfat milk, and probed with anti-STAT antibodies (1:1000) overnight at 4° C. The blot was washed, exposed to HRP-conjugated secondary antibodies for 1 h, and finally examined by chemiluminescence (ECL, Amersham Pharmacia Biotech. Arlington Heights, Ill.).
(§3) MM.1S and MM.1R cells were serum starved for 12 h and then treated with TNF or lymphotoxin in the serum free medium.

MM.1 cells = assay: IL-6-induced proliferation of MM.1 cells; assay type: cell-based, human; settings: serum starved 12 h, IL-6 48 h
Protocol: (§4) FIGS. 7A-B show& that IL-6 induces proliferation of human multiple myeloma cells and curcumin inhibits it. […] Cell proliferation assays were performed as described below. Results are shown as mean (±s.d.) of percent [^3H] thymidine incorporation or percent proliferation by MTT of triplicate cultures compared to the untreated control.
(§5) The antiproliferative effects of curcumin against different multiple myeloma cell lines were determined by the MTT dye uptake method as described earlier (28). Briefly, the cells (5000/well) were incubated in triplicate in a 96-well plate in the presence or absence of indicated test samples in a final volume of 0.1 ml for 24 h at 37° C. […] The OD at 570 nm was measured using a 96-well multiscanner autoreader (Dynatech MR 5000), with the extraction buffer serving as blank. Percent cell viability cell viability was calculated using the following formula: Percent cell viability=(OD of the experiment samples/OD of the control)×100.
(§6) The antiproliferative effects of curcumin were also monitored by the thymidine incorporation method. […] Six hours before the completion of experiment, cells were pulse treated with 0.5 μCi [^3H]thymidine, and the uptake of [^3H]thymidine was monitored using a Matrix-9600 β-counter (Packard Instruments, Downers Grove, Ill.). […]
(§7) Whether curcumin suppresses the proliferative effects of IL-6 was determined.

STAT3 phosphorylation [2] = assay: IL-6-inducible STAT3 phosphorylation in RPMI 8226 cells (Western blot); assay type: cell-based, human; settings: IL-6 10 ng/ml
Protocol: FIGS. 3A-C show& that IL-6 induces STAT3 phosphorylation in human multiple myeloma RPMI 8226 cells and curcumin inhibits it. […] U266, RPMI 8226, MM.1S, MM.1R and OCl cells (2×10^6) were lysed, and 30 μg of whole-cell extracts were resolved on 7.5% SDS-PAGE, electrotransferred to a nitrocellulose membrane, and probed for phosphorylated-STAT3 (upper panel) and STAT3 (lower panel). […] Thirty micrograms of whole cell extracts were resolved on 7.5% SDS-PAGE, electrotransferred to a nitrocellulose membrane, and probed for the phosphorylated-STAT3 (upper panel) and stripped and reprobed for STAT3 (middle panel) and β-actin (lower panel).
as §2
Since IL-6 is a growth factor for multiple myeloma and induces STAT3 phosphorylation (5, 6, 15), whether curcumin could inhibit IL-6-induced STAT3 phosphorylation was examined. […] IL-6 induced phosphorylation of STAT3 as early as 5 min and began to decline at 60 minutes (FIG. 3B). RPMI 8226 cells were then incubated with curcumin for different times and examined for IL-6-inducible STAT3 phosphorylation.
Exposure of cells to curcumin for 4 hours was sufficient to completely suppress IL-6-induced STAT3 phosphorylation. Curcumin alone had no effect on STAT3 phosphorylation in these cells (data not shown).

[3] = test system: MDA 1986LN, JMAR and MDA 686LN cells; assay: IL-6-induced proliferation of human HNSCC cells (thymidine incorporation); assay type: cell-based; settings: serum starved 12 hrs, IL-6 48 hrs
Protocol: Human head and neck squamous cell carcinoma cells MDA 1986LN, JMAR and MDA 686LN were serum starved for 12 hrs. These cells were then cultured with the indicated concentrations of IL-6 for 48 hrs in serum-free medium. Cell viability was determined by thymidine incorporation method.
The present invention also investigated the effect of IL-6 on the proliferation of human HNSCC cells such as MDA 1986LN, JMAR and MDA 686LN by thymidine incorporation method. These cells were serum starved for 12 hrs and then cultured with different concentrations of IL-6 for 48 hrs in serum-free medium.

RPMI 8226 cells = assay: IL-6-induced proliferation of RPMI 8226 cells; assay type: cell-based, human; settings: serum starved 12 h, IL-6 48 h
Protocol: as §4
(§8) The antiproliferative effects of curcumin were also monitored by the thymidine incorporation method. For this, 5000 cells in 100 μl medium were cultured in triplicate in 96-well plates in the presence or absence of curcumin for 24 h. Six hours before the completion of experiment, cells were pulse treated with 0.5 μCi [^3H]thymidine, and the uptake of [^3H]thymidine was monitored using a Matrix-9600 β-counter (Packard Instruments, Downers Grove, Ill.).
To reconfirm previous reports (5, 6, 15, 31) that IL-6 induces proliferation of MM cells, U266, RPMI 8226, MM.1 and MM.1R were serum-starved for 12 h and then cultured them in the absence or presence of different concentrations of IL-6 for 48 h.

MM.1R cells = assay: IL-6-induced proliferation of MM.1R cells; assay type: cell-based, human; settings: serum starved 12 h, IL-6 48 h
Protocol: as §4, §5, §6, §7

STAT3 phosphorylation [4] = assay: IL-6-induced STAT3 phosphorylation in JMAR cells (Western blot); assay type: cell-based, human; settings: IL-6 10 ng/ml
Protocol: JMAR cells (2×10^6 cells) were treated with IL-6 (10 ng/ml) for the indicated time and whole cell extracts were prepared. These extracts (30 μg) were resolved on 7.5% SDS-PAGE, electrotransferred to a nitrocellulose membrane and probed for p-STAT3 (upper panel) and stripped and re-probed for STAT3 (lower panel). […] JMAR cells were pretreated with curcumin (50 μM) for indicated durations and stimulated with IL-6 (10 ng/ml) for 10 mins and whole cell extract prepared and probed as mentioned earlier.
JMAR cells were treated with IL-6 for different durations and the levels of p-STAT3 and STAT3 were examined. Treatment with IL-6 as early as 5 mins induced STAT3 phosphorylation in JMAR cells (FIG. 14A, upper panel). However, STAT3 levels were unaffected (FIG. 14A, lower panel).
Further, since IL-6 induced STAT3 phosphorylation in JMAR cells, the ability of curcumin to inhibit this STAT3 phosphorylation was also examined. JMAR cells were pretreated with curcumin for different durations and stimulated with IL-6 for 10 minutes. Both the status of p-STAT3 and STAT3 were determined in the whole cell extracts of these cells. Treatment with curcumin for as early as 30 minutes led to decline in the phosphorylation of STAT3 which declined further with increased exposure to curcumin. Exposure to curcumin for 2 hours inhibited STAT3 phosphorylation in JMAR cells (FIG. 14B, upper panel). The STAT3 levels were unaffected by this treatment (FIG. 14B, lower panel).

U266 cells = assay: IL-6-induced proliferation of U266 cells (thymidine incorporation, MTT); assay type: cell-based, human; settings: serum starved 12 h, IL-6 48 h
Protocol: as §4, §5, §6, §7

MM.1S and MM.1R cells = assay: TNF- and LT-induced proliferation of MM.1S and MM.1R cells (thymidine incorporation); assay type: cell-based, human; settings: serum starved 12 h, 48 hours serum-free
Protocol: as §1, §8, §3

## IL-6: bacteria-derived recombinant human IL-6 provided by Sandoz Pharmaceutical
STAT3 phosphorylation [1]; IL-6 10 minutes (positive control)
  induction of STAT3 phosphorylation: induced STAT3 phosphorylation in both cell lines
MM.1 cells
  proliferation of MM.1 cells induced by IL-6: induced proliferation
STAT3 phosphorylation [2]
  earliest time of IL-6-induced phosphorylation of STAT3: 5 min
  time at which IL-6-induced STAT3 phosphorylation began to decline: 60 min
[3]
  proliferation of human HNSCC cells induced by IL-6: induced proliferation of MDA 1986LN, JMAR and MDA 686LN cells
RPMI 8226 cells
  proliferation response of RPMI 8226 cells to IL-6: did not respond
MM.1R cells
  proliferation of MM.1R cells induced by IL-6: induced proliferation
STAT3 phosphorylation [4]
  earliest time of IL-6-induced STAT3 phosphorylation: 5 min
U266 cells
  proliferation of U266 cells induced by IL-6: induced proliferation

B1: lymphotoxin: bacteria-derived recombinant human LT provided by Genentech (protein, UniProt P01374 35-205, looked up)
Lymphotoxin-alpha: LPGVGLTPSAAQTARQHPKMHLAHSTLKPAAHLIGDPSKQNSLLWRANTDRAFLQDGFSLSNNSLLVPTSGIYFVYSQVVFSGKAYSPKATSSPLYLAHEVQLFSSQYPFHVPLLSSQKMVYPGLQEPWLHSMYHGAAFQLTQGDQLSTHTDGIPHLVLSPSTVFFGAFAL
STAT3 phosphorylation [1]; 1 nM TNF or LT
  induction of STAT3 phosphorylation: neither TNF nor lymphotoxin induced STAT3 phosphorylation
MM.1S and MM.1R cells
  proliferative effects in MM.1S and MM.1R cells: more pronounced in dex-resistant MM.1R cells than in dex-sensitive MM.1S cells
